Key:
C57B1/6J mice [1] = experiment: Blood (serum) biochemical changes in mice by a single subcutaneous injection of TCDD; format: in vivo
Protocol: (§1) Male C57B1/6J mice of 5 weeks old having the average weight of 18-22 g which had been bred in CRJ (Charles River in Japan) were purchased and used in this example as experimental animals. Those mice were acclimated under the constant breeding condition, i.e. the temperature of 24±1° C., the humidity of 60±10% and the light and darkness cycle of 12 hours, for one week and thereafter, utilized in the experiment.
(§2) 2,3,7,8-tetrachlorodibenzo-p-dioxin (TCDD) dissolved in toluene (purity of 95% or more as a result of gas chromatography analysis), manufactured by Chem. Services Inc. in USA, was volatilized with nitrogen to obtain powder. The obtained powder was dissolved in a mixed solvent containing acetone and corn oil with a volume ratio of 1:6. The resulting solution each containing 110, 27.5 and 6.9 μg/kg of TCDD was subcutaneously injected to mice at a volume of 5 ml per body weight. […] The mice were supplied with the feed from 10 days before (pre-administration) to 60 days after administration of TCDD (post-administration).
(§3) Upon completion of the experiment for 60 days, the experimental animals were fasted for 24 hours and anesthetized with ether. Then, they were abdominally incised and blood was gathered from abdominal vena cava. They were sacrificed by the release of blood. Liver, kidneys, testes and epididymides were extracted and all the extracted organs were weighed. Only the testes were separately kept and observed under optical and electron microscopes. For biochemical finding test, serum was separated from blood with a centrifuge and the separated serum was analyzed with an automated blood biochemical analyzer, Dimension (Dupont, USA). Blood was put to another blood gathering bottle and then, analyzed with an automated blood cell analyzer, Celldyn (Abbott, USA).
(§4) The results are expressed as Mean±Standard Deviation values. For statistical analysis of the body weight, feed and water uptake, biochemical findings, hematological findings and the weight of organ in an acute toxicity test, verification was performed by one way analysis of variance (ANOVA) in case of equal distribution. In case significance was recognized in ANOVA, the Student's t-test was performed in the levels of p<0.05 and p<0.01.
For biochemical findings in the serum, the levels of glucose (GLU), GOT, GPT, Triglyceride (TG), high density lipoprotein (HDL-C), low density lipoprotein (LDL-C) and alkaline phosphatase (ALP) in serum were measured and the results are shown in the following.

C57B1/6J mice [2] = experiment: Organ weights (liver, kidneys, testes, epididymides) of mice after a single subcutaneous injection of TCDD; format: in vivo
Protocol: as §1, §2, §3, §4
The organs, i.e. liver, kidneys, testes and epididymides, were weighed and the results are shown in the following.

[3] = TCDD 6.9 μg/kg + UDCA 0.125 wt %
[4] = TCDD 6.9 μg/kg + UDCA 0.25 wt %
[5] = TCDD 27.5 μg/kg + UDCA 0.125 wt %
[6] = TCDD 27.5 μg/kg + UDCA 0.25 wt %
[7] = TCDD 27.5 μg/kg + UDCA 0.5 wt %

Question: How did the ALP (C57B1/6J mice [1]; [3]) turn out when `C[C@H](CCC(=O)O)[C@H]1CC[C@H]2[C@@H]3[C@@H](O)C[C@@H]4C[C@H](O)CC[C@]4(C)[C@H]3CC[C@]12C` [UDCA, 3α, 7β-dihydroxy-5β-cholanoic acid] was run?
Answer: 66.78 ± 7.21 IU/l

Question: And the GLU (C57B1/6J mice [1]; [3])?
Answer: 128.00 ± 27.26 mg/dL

Question: What about the GOT (C57B1/6J mice [1]; [3]) of the same compound?
Answer: 49.80 ± 2.74 IU/l

Question: And the GPT (C57B1/6J mice [1]; [3])?
Answer: 23.50 ± 8.32 IU/l

Question: And the HDL-C (C57B1/6J mice [1]; [3])?
Answer: 45.67 ± 2.74 mg/dL

Question: And the LDL-C (C57B1/6J mice [1]; [3])?
Answer: 14.56 ± 6.28 mg/dL

Question: And the TG (C57B1/6J mice [1]; [3])?
Answer: 79.56 ± 1129 mg/dL

Question: What about the ALP (C57B1/6J mice [1]; [4]) of the same compound?
Answer: 72.05 ± 6.63 IU/l

Question: What about the GLU (C57B1/6J mice [1]; [4]) of the same compound?
Answer: 104.60 ± 24.87 mg/dL

Question: What about the GOT (C57B1/6J mice [1]; [4]) of the same compound?
Answer: 57.30 ± 4.83 IU/l

Question: What about the GPT (C57B1/6J mice [1]; [4]) of the same compound?
Answer: 24.00 ± 6.39 IU/l

Question: And the HDL-C (C57B1/6J mice [1]; [4])?
Answer: 46.30 ± 5.08 mg/dL

Question: What about the LDL-C (C57B1/6J mice [1]; [4]) of the same compound?
Answer: 21.20 ± 5.25 mg/dL

Question: And the TG (C57B1/6J mice [1]; [4])?
Answer: 75.90 ± 11.55 mg/dL

Question: What about the ALP (C57B1/6J mice [1]; TCDD 6.9 μg/kg + UDCA 0.5 wt %) of the same compound?
Answer: 85.24 ± 10.28 IU/l

Question: What about the GLU (C57B1/6J mice [1]; TCDD 6.9 μg/kg + UDCA 0.5 wt %) of the same compound?
Answer: 125.50 ± 14.98 mg/dL

Question: And the GOT (C57B1/6J mice [1]; TCDD 6.9 μg/kg + UDCA 0.5 wt %)?
Answer: 47.11 ± 1.9 IU/l

Question: And the GPT (C57B1/6J mice [1]; TCDD 6.9 μg/kg + UDCA 0.5 wt %)?
Answer: 18.78 ± 5.07 IU/l

Question: And the HDL-C (C57B1/6J mice [1]; TCDD 6.9 μg/kg + UDCA 0.5 wt %)?
Answer: 44.83 ± 2.04 mg/dL

Question: What about the LDL-C (C57B1/6J mice [1]; TCDD 6.9 μg/kg + UDCA 0.5 wt %) of the same compound?
Answer: 28.33 ± 4.63 mg/dL

Question: And the TG (C57B1/6J mice [1]; TCDD 6.9 μg/kg + UDCA 0.5 wt %)?
Answer: 84.20 ± 7.66 mg/dL

Question: What about the ALP (C57B1/6J mice [1]; [5]) of the same compound?
Answer: 75.14 ± 18.33 IU/l

Question: And the GLU (C57B1/6J mice [1]; [5])?
Answer: 55.22 ± 9.34 mg/dL

Question: What about the GOT (C57B1/6J mice [1]; [5]) of the same compound?
Answer: 75.22 ± 6.38 IU/l

Question: What about the GPT (C57B1/6J mice [1]; [5]) of the same compound?
Answer: 54.67 ± 23.28 IU/l

Question: And the HDL-C (C57B1/6J mice [1]; [5])?
Answer: 34.78 ± 4.35 mg/dL

Question: And the LDL-C (C57B1/6J mice [1]; [5])?
Answer: 2.40 ± 1.14 mg/dL

Question: What about the TG (C57B1/6J mice [1]; [5]) of the same compound?
Answer: 98.78 ± 17.14 mg/dL

Question: What about the ALP (C57B1/6J mice [1]; [6]) of the same compound?
Answer: 79.63 ± 6.07 IU/l

Question: And the GLU (C57B1/6J mice [1]; [6])?
Answer: 82.44 ± 13.04 mg/dL

Question: What about the GOT (C57B1/6J mice [1]; [6]) of the same compound?
Answer: 58.67 ± 5.54 IU/l

Question: And the GPT (C57B1/6J mice [1]; [6])?
Answer: 42.11 ± 22.05 IU/l

Question: And the HDL-C (C57B1/6J mice [1]; [6])?
Answer: 37.44 ± 3.64 mg/dL

Question: What about the LDL-C (C57B1/6J mice [1]; [6]) of the same compound?
Answer: 4.29 ± 4.03 mg/dL

Question: What about the TG (C57B1/6J mice [1]; [6]) of the same compound?
Answer: 97.00 ± 17.68 mg/dL

Question: What about the ALP (C57B1/6J mice [1]; [7]) of the same compound?
Answer: 80.57 ± 14.52 IU/l

Question: What about the GLU (C57B1/6J mice [1]; [7]) of the same compound?
Answer: 64.22 ± 9.35 mg/dL

Question: What about the GOT (C57B1/6J mice [1]; [7]) of the same compound?
Answer: 96.67 ± 31.63 IU/l

Question: What about the GPT (C57B1/6J mice [1]; [7]) of the same compound?
Answer: 45.38 ± 21.74 IU/l

Question: What about the HDL-C (C57B1/6J mice [1]; [7]) of the same compound?
Answer: 47.00 ± 7.66 mg/dL

Question: What about the LDL-C (C57B1/6J mice [1]; [7]) of the same compound?
Answer: 15.33 mg/dL

Question: And the TG (C57B1/6J mice [1]; [7])?
Answer: 133.33 ± 13.17 mg/dL

Question: What about the “Left epididymis Relative weight” value (C57B1/6J mice [2]; [3]) of the same compound?
Answer: 0.121 ± 0.011 %

Question: What about the “Left epididymis Weight” value (C57B1/6J mice [2]; [3]) of the same compound?
Answer: 0.029 ± 0.003 g

Question: What about the “Left kidney Relative weight” value (C57B1/6J mice [2]; [3]) of the same compound?
Answer: 0.480 ± 0.050%

Question: What about the “Left kidney Weight” value (C57B1/6J mice [2]; [3]) of the same compound?
Answer: 0.116 ± 0.014 g

Question: And the “Left testis Relative weight” value (C57B1/6J mice [2]; [3])?
Answer: 0.297 ± 0.020%

Question: And the “Left testis Weight” value (C57B1/6J mice [2]; [3])?
Answer: 0.072 ± 0.006 g

Question: What about the “Liver Relative weight” value (C57B1/6J mice [2]; [3]) of the same compound?
Answer: 4.069 ± 0.167%

Question: And the “Liver Weight” value (C57B1/6J mice [2]; [3])?
Answer: 0.980 ± 0.073 g

Question: What about the “Right epididymis Relative weight” value (C57B1/6J mice [2]; [3]) of the same compound?
Answer: 0.121 ± 0.014%

Question: And the “Right epididymis Weight” value (C57B1/6J mice [2]; [3])?
Answer: 0.029 ± 0.003 g

Question: What about the “Right kidney Relative weight” value (C57B1/6J mice [2]; [3]) of the same compound?
Answer: 0.511 ± 0.049%

Question: And the “Right kidney Weight” value (C57B1/6J mice [2]; [3])?
Answer: 0.123 ± 0.008 g

Question: And the “Right testis Relative weight” value (C57B1/6J mice [2]; [3])?
Answer: 0.304 ± 0.020%

Question: What about the “Right testis Weight” value (C57B1/6J mice [2]; [3]) of the same compound?
Answer: 0.073 ± 0.007 g

Question: And the “Left epididymis Relative weight” value (C57B1/6J mice [2]; [4])?
Answer: 0.121 ± 0.011 %

Question: What about the “Left epididymis Weight” value (C57B1/6J mice [2]; [4]) of the same compound?
Answer: 0.030 ± 0.003 g

Question: What about the “Left kidney Relative weight” value (C57B1/6J mice [2]; [4]) of the same compound?
Answer: 0.484 ± 0.036%

Question: What about the “Left kidney Weight” value (C57B1/6J mice [2]; [4]) of the same compound?
Answer: 0.119 ± 0.009 g

Question: And the “Left testis Relative weight” value (C57B1/6J mice [2]; [4])?
Answer: 0.287 ± 0.036%

Question: And the “Left testis Weight” value (C57B1/6J mice [2]; [4])?
Answer: 0.071 ± 0.008 g

Question: What about the “Liver Relative weight” value (C57B1/6J mice [2]; [4]) of the same compound?
Answer: 3.870 ± 0.289%

Question: What about the “Liver Weight” value (C57B1/6J mice [2]; [4]) of the same compound?
Answer: 0.954 ± 0.057 g

Question: What about the “Right epididymis Relative weight” value (C57B1/6J mice [2]; [4]) of the same compound?
Answer: 0.115 ± 0.009%

Question: And the “Right epididymis Weight” value (C57B1/6J mice [2]; [4])?
Answer: 0.029 ± 0.002 g

Question: And the “Right kidney Relative weight” value (C57B1/6J mice [2]; [4])?
Answer: 0.500 ± 0.048%

Question: What about the “Right kidney Weight” value (C57B1/6J mice [2]; [4]) of the same compound?
Answer: 0.123 ± 0.013 g

Question: What about the “Right testis Relative weight” value (C57B1/6J mice [2]; [4]) of the same compound?
Answer: 0.290 ± 0.030%

Question: What about the “Right testis Weight” value (C57B1/6J mice [2]; [4]) of the same compound?
Answer: 0.072 ± 0.008 g

Question: And the “Left epididymis Relative weight” value (C57B1/6J mice [2]; TCDD 6.9 μg/kg + UDCA 0.5 wt %)?
Answer: 0.121 ± 0.010 %

Question: And the “Left epididymis Weight” value (C57B1/6J mice [2]; TCDD 6.9 μg/kg + UDCA 0.5 wt %)?
Answer: 0.029 ± 0.003 g

Question: And the “Left kidney Relative weight” value (C57B1/6J mice [2]; TCDD 6.9 μg/kg + UDCA 0.5 wt %)?
Answer: 0.500 ± 0.025%

Question: And the “Left kidney Weight” value (C57B1/6J mice [2]; TCDD 6.9 μg/kg + UDCA 0.5 wt %)?
Answer: 0.121 ± 0.007 g

Question: And the “Left testis Relative weight” value (C57B1/6J mice [2]; TCDD 6.9 μg/kg + UDCA 0.5 wt %)?
Answer: 0.310 ± 0.050%

Question: And the “Left testis Weight” value (C57B1/6J mice [2]; TCDD 6.9 μg/kg + UDCA 0.5 wt %)?
Answer: 0.075 ± 0.010 g

Question: What about the “Liver Relative weight” value (C57B1/6J mice [2]; TCDD 6.9 μg/kg + UDCA 0.5 wt %) of the same compound?
Answer: 4.258 ± 0.327%
